# From US10681909B2, “Herbicidal triazoles” (FMC Corporation, priority 2014, dated 2020)
# What was measured:
# pigweed = test: Test C preemergence; assay type: in vivo, Amaranthus retroflexus; conditions: for Plant response rating (scale of 0 to 100 where 0 is no effect and 100 is complete control): Pigweed, preemergence; for Pigweed plant response rating (0 to 100): Preemergence, visual rating after 13 to 15 d
# Excerpt: (§1) Seeds of plant species selected from blackgrass (Alopecurus myosuroides), ryegrass, Italian (Italian ryegrass, Lolium multiflorum), wheat (winter wheat, Triticum aestivum), galium (catchweed bedstraw, Galium aparine), corn (Zea mays), crabgrass, large (large crabgrass, Digitaria sanguinalis), foxtail, giant, (giant foxtail, Setaria faberii), johnsongrass (Sorghum halepense), lambsquarters (Chenopodium album), morningglory (Ipomoea coccinea), nutsedge, yellow (yellow nutsedge, Cyperus esculentus), pigweed (Amaranthus retroflexus), ragweed (common ragweed, Ambrosia elatior), soybean (Glycine max), barnyardgrass (Echinochloa crus-galli), oilseed rape (Brassica napus), waterhemp (common waterhemp, Amaranthus rudis), and velvetleaf (Abutilon theophrasti) were planted into a blend of loam soil and sand and treated preemergence with test chemicals formulated in a non-phytotoxic solvent mixture which included a surfactant. At the same time, plants selected from these crop and weed species and also chickweed (common chickweed, Stellaria media), oat, wild (wild oat, Avena fatua), and kochia (Kochia scoparia), were planted in pots containing Sunshine Redi-Earth® planting medium comprising spaghnum peat moss, vermiculite, starter nutrients and dolomitic limestone and treated with postemergence applications of test chemicals formulated in the same manner. Plants ranged in height from 2 to 18 cm (1- to 4-leaf stage) for postemergence treatments. […] A dash (-) response means no test result.
# oilseed rape = test: Test C preemergence; assay type: in vivo, Brassica napus; conditions: for Plant response rating (scale of 0 to 100 where 0 is no effect and 100 is complete control): Oilseed Rape, preemergence; for Oilseed Rape plant response rating (0 to 100): Preemergence, visual rating after 13 to 15 d
# Excerpt: as §1
# kochia [1] = test: Test A preemergence; assay type: in vivo, Kochia scoparia; conditions: 0 to 100 scale (0 no effect, 100 complete control)
# Summary of the method: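 Seeds sown in loam soil–sand blend received a directed preemergence soil spray of test chemical in non-phytotoxic solvent with surfactant; postemergence plants, 2 to 10 cm at one- to two-leaf stage, were sprayed with the same formulation. Injury visually rated versus untreated controls after ~10 d in greenhouse, 0–100 scale.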
# field violet = test: Test D preemergence; assay type: in vivo, Viola arvensis; conditions: scale 0 to 100
# Excerpt: (§2) Seeds of plant species selected from bluegrass (annual bluegrass, Poa annua), blackgrass (Alopecurus myosuroides), canarygrass (Phalaris minor), chickweed (common chickweed, Stellaria media), galium (catchweed bedstraw, Galium aparine), bromegrass, down (downy bromegrass, Bromus tectorum), Russian thistle (Salsola kali), field poppy (Papaver rhoeas), field violet (Viola arvensis), foxtail, green (green foxtail, Setaria viridis), deadnettle (henbit deadnettle, Lamium amplexicaule), ryegrass, Ital. (Italian ryegrass, Lolium multiflorum), kochia (Kochia scoparia), lambsquarters (Chenopodium album), oilseed rape (Brassica napus), pigweed (Amaranthus retroflexus), chamomile (scentless chamomile, Matricaria inodora), speedwell (bird's-eye speedwell, Veronica persica), barley, spring (spring barley, Hordeum vulgare), wheat, spring (spring wheat, Triticum aestivum), buckwheat, wild (wild buckwheat, Polygonum convolvulus), wild mustard (Sinapis arvensis), oat, wild (wild oat, Avena fatua), radish, wild (wild radish, Raphanus raphanistrum), […]), barley, winter (winter barley, Hordeum vulgare), and wheat, winter (winter wheat, Triticum aestivum) were planted into a silt loam soil and treated preemergence with test chemicals formulated in a non-phytotoxic solvent mixture which included a surfactant. At the same time, these species were planted in pots containing Sunshine Redi-Earth® planting medium comprising spaghnum peat moss, vermiculite, starter nutrients and dolomitic limestone and treated with postemergence applications of the test chemicals formulated in the same manner. Plants ranged in height from 2 to 18 cm (1- to 4-leaf stage). Treated plants and controls were maintained in a controlled growth environment for 14 to 21 d after which time all species were compared to controls and visually evaluated. […] A dash (-) response means no test result.
# kochia [2] = test: Test D preemergence; assay type: in vivo, Kochia scoparia; conditions: scale 0 to 100
# Excerpt: as §2
# lambsquarters = test: Test D preemergence; assay type: in vivo, Chenopodium album; conditions: scale 0 to 100
# Excerpt: as §2
# speedwell = test: Test D preemergence; assay type: in vivo, Veronica persica; conditions: scale 0 to 100
# Excerpt: as §2
# wild mustard = test: Test D preemergence; assay type: in vivo, Sinapis arvensis; conditions: scale 0 to 100
# Excerpt: as §2
# blackgrass = test: Test D postemergence; assay type: in vivo, Alopecurus myosuroides; conditions: scale 0 to 100
# Excerpt: as §2
# field poppy = test: Test D postemergence; assay type: in vivo, Papaver rhoeas; conditions: scale 0 to 100
# Excerpt: as §2
# oat, wild = test: Test D postemergence; assay type: in vivo, Avena fatua; conditions: scale 0 to 100
# Excerpt: as §2
structure (smiles),measurement,setting,value
"CCCc1nc(-c2ccc(F)cc2)nn1Cc1ccnc(C(F)(F)F)c1 [Compound 6, 4-[[3-(4-fluorophenyl)-5-propyl-1H-1,2,4-triazol-1-yl]methyl]-2-(trifluoromethyl)pyridine]",Plant response rating (scale of 0 to 100 where 0 is no effect and 100 is complete control),pigweed; 125 g ai/ha,100
same,Plant response rating (scale of 0 to 100 where 0 is no effect and 100 is complete control),pigweed; 250 g ai/ha,100
same,Pigweed plant response rating (0 to 100),pigweed; 31 g ai/ha,100
same,Pigweed plant response rating (0 to 100),pigweed; 62 g ai/ha,100
same,Plant response rating (scale of 0 to 100 where 0 is no effect and 100 is complete control),oilseed rape; 125 g ai/ha,100
same,Plant response rating (scale of 0 to 100 where 0 is no effect and 100 is complete control),oilseed rape; 250 g ai/ha,100
same,Oilseed Rape plant response rating (0 to 100),oilseed rape; 31 g ai/ha,70
same,Oilseed Rape plant response rating (0 to 100),oilseed rape; 62 g ai/ha,100
CCOc1nc(-c2ccc(Cl)cc2)nn1Cc1ccnc(C(F)(F)F)c1 [Compound 26],"Plant response rating, Kochia",kochia [1]; 31 g ai/ha,60
same,"Plant response rating, Kochia",kochia [1]; 125 g ai/ha,90
"CCOc1nc(-c2ccc(F)cc2)nn1Cc1ccnc(C(F)(F)F)c1 [Compound 8, 4-[[5-ethoxy-3-(4-fluorophenyl)-1H-1,2,4-triazol-1-yl]methyl]-2-(trifluoromethyl)pyridine]",Plant response rating (scale of 0 to 100 where 0 is no effect and 100 is complete control),pigweed; 125 g ai/ha,100
same,Plant response rating (scale of 0 to 100 where 0 is no effect and 100 is complete control),pigweed; 250 g ai/ha,100
same,Pigweed plant response rating (0 to 100),pigweed; 31 g ai/ha,100
same,Pigweed plant response rating (0 to 100),pigweed; 62 g ai/ha,100
same,Plant response rating (scale of 0 to 100 where 0 is no effect and 100 is complete control),oilseed rape; 125 g ai/ha,100
same,Plant response rating (scale of 0 to 100 where 0 is no effect and 100 is complete control),oilseed rape; 250 g ai/ha,100
same,Oilseed Rape plant response rating (0 to 100),oilseed rape; 31 g ai/ha,95
same,Oilseed Rape plant response rating (0 to 100),oilseed rape; 62 g ai/ha,95
same,Plant response rating: Field Violet,field violet; 62 g ai/ha,100
same,Plant response rating: Field Violet,field violet; 125 g ai/ha,100
same,Plant response rating: Field Violet,field violet; 250 g ai/ha,100
same,Plant response rating: Kochia,kochia [2]; 62 g ai/ha,100
same,Plant response rating: Kochia,kochia [2]; 125 g ai/ha,100
same,Plant response rating: Kochia,kochia [2]; 250 g ai/ha,100
same,Plant response rating: Lambsquarters,lambsquarters; 62 g ai/ha,100
same,Plant response rating: Lambsquarters,lambsquarters; 125 g ai/ha,100
same,Plant response rating: Lambsquarters,lambsquarters; 250 g ai/ha,100
same,Plant response rating: Speedwell,speedwell; 62 g ai/ha,100
same,Plant response rating: Speedwell,speedwell; 125 g ai/ha,100
same,Plant response rating: Speedwell,speedwell; 250 g ai/ha,100
same,"Plant response rating: Mustard, Wild",wild mustard; 62 g ai/ha,100
same,"Plant response rating: Mustard, Wild",wild mustard; 125 g ai/ha,100
same,"Plant response rating: Mustard, Wild",wild mustard; 250 g ai/ha,100
same,Plant response rating: Blackgrass,blackgrass; 31 g ai/ha,50
same,Plant response rating: Blackgrass,blackgrass; 62 g ai/ha,50
same,Plant response rating: Blackgrass,blackgrass; 125 g ai/ha,75
same,Plant response rating: Blackgrass,blackgrass; 250 g ai/ha,70
same,Plant response rating: Field Poppy,field poppy; 31 g ai/ha,80
same,Plant response rating: Field Poppy,field poppy; 62 g ai/ha,90
same,Plant response rating: Field Poppy,field poppy; 125 g ai/ha,95
same,Plant response rating: Field Poppy,field poppy; 250 g ai/ha,100
same,"Plant response rating: Oat, Wild","oat, wild; 31 g ai/ha",35
same,"Plant response rating: Oat, Wild","oat, wild; 62 g ai/ha",45
same,"Plant response rating: Oat, Wild","oat, wild; 125 g ai/ha",45
same,"Plant response rating: Oat, Wild","oat, wild; 250 g ai/ha",55
COc1nc(-c2ccc(C(F)(F)F)cc2)nn1Cc1ccnc(C(F)(F)F)c1 [Compound 25],"Plant response rating, Kochia",kochia [1]; 31 g ai/ha,20
same,"Plant response rating, Kochia",kochia [1]; 125 g ai/ha,80
"COc1nc(-c2ccc(F)cc2)nn1Cc1ccnc(C(F)(F)F)c1 [Compound 9, 4-[[3-(4-fluorophenyl)-5-methoxy-1H-1,2,4-triazol-1-yl]methyl]-2-(trifluoromethyl)pyridine]",Plant response rating (scale of 0 to 100 where 0 is no effect and 100 is complete control),pigweed; 125 g ai/ha,100
same,Plant response rating (scale of 0 to 100 where 0 is no effect and 100 is complete control),pigweed; 250 g ai/ha,98
same,Pigweed plant response rating (0 to 100),pigweed; 31 g ai/ha,100
same,Pigweed plant response rating (0 to 100),pigweed; 62 g ai/ha,100
same,Plant response rating (scale of 0 to 100 where 0 is no effect and 100 is complete control),oilseed rape; 125 g ai/ha,95
same,Plant response rating (scale of 0 to 100 where 0 is no effect and 100 is complete control),oilseed rape; 250 g ai/ha,100
same,Oilseed Rape plant response rating (0 to 100),oilseed rape; 31 g ai/ha,0
same,Oilseed Rape plant response rating (0 to 100),oilseed rape; 62 g ai/ha,60
COc1nc(-c2ccccc2)nn1Cc1ccnc(C(F)(F)F)c1 [Compound 32],"Plant response rating, Kochia",kochia [1]; 125 g ai/ha,100
same,"Plant response rating, Kochia","kochia [1]; 500 g ai/ha, approx. 10 d",100
same,Plant response rating (scale of 0 to 100 where 0 is no effect and 100 is complete control),pigweed; 125 g ai/ha,100
same,Plant response rating (scale of 0 to 100 where 0 is no effect and 100 is complete control),pigweed; 250 g ai/ha,100
same,Pigweed plant response rating (0 to 100),pigweed; 31 g ai/ha,100
same,Pigweed plant response rating (0 to 100),pigweed; 62 g ai/ha,100
same,Plant response rating (scale of 0 to 100 where 0 is no effect and 100 is complete control),oilseed rape; 125 g ai/ha,10
same,Plant response rating (scale of 0 to 100 where 0 is no effect and 100 is complete control),oilseed rape; 250 g ai/ha,85
same,Oilseed Rape plant response rating (0 to 100),oilseed rape; 31 g ai/ha,5
same,Oilseed Rape plant response rating (0 to 100),oilseed rape; 62 g ai/ha,20
"CCc1nc(-c2ccc(C(F)(F)F)cc2)nn1Cc1ccnc(C(F)(F)F)c1 [Compound 1, 4-[[5-ethyl-3-[4-(trifluoromethyl)phenyl]-1H-1,2,4-triazol-1-yl]methyl]-2-(trifluoromethyl)pyridine]",Plant response rating (scale of 0 to 100 where 0 is no effect and 100 is complete control),pigweed; 125 g ai/ha,100
same,Plant response rating (scale of 0 to 100 where 0 is no effect and 100 is complete control),pigweed; 250 g ai/ha,100
same,Pigweed plant response rating (0 to 100),pigweed; 31 g ai/ha,100
same,Pigweed plant response rating (0 to 100),pigweed; 62 g ai/ha,100
same,Plant response rating (scale of 0 to 100 where 0 is no effect and 100 is complete control),oilseed rape; 125 g ai/ha,100
same,Plant response rating (scale of 0 to 100 where 0 is no effect and 100 is complete control),oilseed rape; 250 g ai/ha,100
same,Oilseed Rape plant response rating (0 to 100),oilseed rape; 31 g ai/ha,25
same,Oilseed Rape plant response rating (0 to 100),oilseed rape; 62 g ai/ha,90
same,Plant response rating: Field Violet,field violet; 62 g ai/ha,95
same,Plant response rating: Field Violet,field violet; 125 g ai/ha,100
same,Plant response rating: Field Violet,field violet; 250 g ai/ha,100
same,Plant response rating: Kochia,kochia [2]; 62 g ai/ha,70
same,Plant response rating: Kochia,kochia [2]; 125 g ai/ha,100
same,Plant response rating: Kochia,kochia [2]; 250 g ai/ha,100
same,Plant response rating: Lambsquarters,lambsquarters; 62 g ai/ha,100
same,Plant response rating: Lambsquarters,lambsquarters; 125 g ai/ha,100
same,Plant response rating: Lambsquarters,lambsquarters; 250 g ai/ha,100
same,Plant response rating: Speedwell,speedwell; 62 g ai/ha,100
same,Plant response rating: Speedwell,speedwell; 125 g ai/ha,100
same,Plant response rating: Speedwell,speedwell; 250 g ai/ha,100
same,"Plant response rating: Mustard, Wild",wild mustard; 62 g ai/ha,100
same,"Plant response rating: Mustard, Wild",wild mustard; 125 g ai/ha,100
same,"Plant response rating: Mustard, Wild",wild mustard; 250 g ai/ha,100
same,Plant response rating: Blackgrass,blackgrass; 31 g ai/ha,10
same,Plant response rating: Blackgrass,blackgrass; 62 g ai/ha,20
same,Plant response rating: Blackgrass,blackgrass; 125 g ai/ha,30
same,Plant response rating: Blackgrass,blackgrass; 250 g ai/ha,45
same,Plant response rating: Field Poppy,field poppy; 31 g ai/ha,70
same,Plant response rating: Field Poppy,field poppy; 62 g ai/ha,100
same,Plant response rating: Field Poppy,field poppy; 125 g ai/ha,100
same,Plant response rating: Field Poppy,field poppy; 250 g ai/ha,100
same,"Plant response rating: Oat, Wild","oat, wild; 31 g ai/ha",25
same,"Plant response rating: Oat, Wild","oat, wild; 62 g ai/ha",30
same,"Plant response rating: Oat, Wild","oat, wild; 125 g ai/ha",35
same,"Plant response rating: Oat, Wild","oat, wild; 250 g ai/ha",45
CCCOc1nc(-c2ccccc2)nn1Cc1ccnc(C(F)(F)F)c1 [Compound 33],"Plant response rating, Kochia",kochia [1]; 125 g ai/ha,60
same,"Plant response rating, Kochia","kochia [1]; 500 g ai/ha, approx. 10 d",90
